Data: US20060193880A1, “Method and compositions for attracting mosquitoes employing (R)-(+)-isomers of 1-alkyn-3-ols” (Bedoukian Research, Inc., priority 2005, published 2006)

How the values were obtained:
Type in all cases: in vivo
[1] = tested on: mosquitoes; assay: Mosquito trap catch with wax lure and CO2, model 1012 traps, Connecticut; settings: wax lure, approx. 0.17 mg/hr release, CO2 approx. 140 ml/minute, average of four three-day cycles
Protocol: The following tests were conducted in Connecticut in September 2004. Mosquito traps model 1012 manufactured by John W. Hock Company in Gainesville, Florida were used in these experiments. The traps use a stream of CO2 directed in the vicinity of a collection bag, with a fan used to blow mosquitoes into the bag. The light supplied with the trap was turned off. The traps were spaced 65-70 feet apart at the edge of a wetland in Danbury, Conn., at least 25 feet from any buildings. The (R) and (S)-1-octyn-3-ol was incorporated into a wax lure of the type manufactured by BioSensory, Inc. and placed near a stream of CO2 which was being released at a rate of approximately 140 ml/minute. The traps were operated from approximately 4:00 PM until 9:00 AM the next day. Daytime temperatures were 70-75° F. during the trials. Average weight loss from the wax lures during the test was approximately 4 mg/day, or 0.17 mg/hr. Three traps were used, with either (R)-1-Octyn-3-ol, (S)-1-Octyn-3-ol, or no treatment, rotated among the traps over a three-day cycle. Four complete cycles were performed and the results for each treatment were averaged.
The traps with no attractant were considered as the baseline catch of mosquitoes and the results of the catches with the isomers were compared to this baseline value.

[2] = tested on: mosquitoes; assay: Mosquito trap catch, Mosquito Magnet Liberty traps, Danbury, Conn.; settings: porous frit, 1 gram, releasing approx. 1 mg/h, rotated twice among four traps over eight days
Protocol: Tests were conducted with the Mosquito Magnet Liberty model manufactured by American Biophysics Corp. The traps were spaced 65-70 feet apart at the edge of a wetland in Danbury, Conn., at least 25 feet from any buildings. 1 gram of test chemical was added to a clean porous frit of the type normally used in the trap, releasing approximately 1 mg/h. (R)-(+)-1-octyn-3-ol, (S)-(-)-1-octyn-3-ol, (R)-(-)-1-octen-3-ol, and racemic 1-octen-3-ol were rotated twice among four traps over eight days, and the results for each attractant were compared.

[3] = tested on: mosquitoes; assay: Mosquito trap catch, Mosquito Magnet Pro units, Florida; settings: release rates approx. 60 mg/day and 500 mg/day; 10-18 test days
Protocol: In tests performed in Florida using Mosquito Magnet Pro units, (R)-(+)-1-octyn-3-ol was compared with racemic 1-octyn-3-ol and (S)-(-)-1-octyn-3-ol at release rates of approximately 60 mg/day and 500 mg/day. The lures were rotated among the traps and compared to the same traps with no lure, all relative to a control trap. The (S)-(-)-1-octyn-3-ol caught an average of 39% more mosquitoes relative to the control than the traps when no lure was used (18 test days), the racemic 1-octyn-3-ol caught an average of 240% more mosquitoes than did no lure (10 test days), and the (R)-(+)-1-octyn-3-ol caught an average of 334% more mosquitoes than the traps with no lure (16 test days).

## C#C[C@@H](O)CCCCC [(S)-(-)-1-octyn-3-ol]
[1]
  more mosquitoes captured than the baseline (traps with no attractant): 65%
[2]
  less mosquitoes caught than the trap with the 50:50 racemic mixture of 1-octen-3-ol: 23%
[3]
  average more mosquitoes caught than the traps with no lure, relative to a control trap: 39%

## C#CC(O)CCCCC (racemic) [racemic 1-octyn-3-ol, 1-octyn-3-ol]
[3]
  average more mosquitoes caught than the traps with no lure, relative to a control trap: 240%

## C#C[C@H](O)CCCCC [(R)-(+)-1-octyn-3-ol]
[1]
  more mosquitoes captured than the baseline (traps with no attractant): 120%
[2]
  more mosquitoes caught than the trap with the 50:50 racemic mixture of 1-octen-3-ol: 34%
[3]
  average more mosquitoes caught than the traps with no lure, relative to a control trap: 334%
